Key:
Gli1 = assay: Down regulation of Smo targeted gene Gli1 in the brain, primary medulloblastoma model; format: in vivo; conditions: Ptch1+/-p53-/- medulloblastoma mice, 30 mg/kg once daily for 4 days oral gavage, 6 hours post last dose
Method: Down Regulation of Smo Targeted Gene Gli1 in the Brain by A-116
In this study, 6-week-old Ptch1+/−p53−/− primary medulloblastoma mice (n=3 per group) were treated with 30 mg/kg of A-116 or vehicle (0.5% methylcellulose (MC)) once daily for 4 days by oral gavage. On day 4, at 6 hours post last dose, mice were euthanized and tumor bearing cerebella were removed. Total RNA was extracted from the tumor tissue together with the cerebella using the RNeasy Mini Kit (Qiagen). Subsequently, cDNA was synthesized from the RNA using High Capacity cDNA Reverse Transcription Kit (Applied Biosystems) according to the protocol provided by the vendor. Quantitative real-time PCR analysis of Smo targeted gene Gli1 expression level was performed using RT-PCR ABI Prism 7900 sequence detection system (Applied Biosystems).

Gli-Luc/MEF cells = assay: Gli-Luc/MEF assay; format: cell-based, mouse; conditions: Mus musculus, MEF; Shh-stimulated luciferase, 48 hours
Procedure, shortened: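 Mouse embryonic fibroblasts from Gli-Luc transgenic mice (luciferase under Gli response element) dosed with compounds (final […], 3-fold series), then stimulated with recombinant mouse Shh at final 2 μg/mL. After 48 h at 37 °C, luminescence read by Bright-Glo; IC50 from inhibition of Shh-induced signal.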

Cc1cnc(-c2cc(N3CCN(C(=O)CCS(C)(=O)=O)CC3)ncc2Cl)c(C)c1 [Example A-116, 5′-chloro-3,5-dimethyl-2′-{4-[3-(methylsulfonyl)propanoyl]piperazin-1-yl}-2,4′-bipyridine]
Gli1 level, % of vehicle control (Gli1): 4.5±0.4% | IC50 (Gli-Luc/MEF cells): 2.76 nM
